Results reported in ChEMBL document CHEMBL6153089, “Design, Synthesis, and Biological Evaluation of Thieno[3,2-d]pyrimidine Derivatives as the First Bifunctional PI3Kδ Isoform Selective/Bromodomain and Extra-Terminal Inhibitors” (J Med Chem, 2025).
Activity calls are given as the source filed them. The calls are words filed in the database; no cut-off is given here.

Legend:
[1] = biological target: Bromodomain-containing protein 2 (Homo sapiens, UniProt P25440); assay: Inhibition of His-tagged BRD2-BD1 (unknown origin) incubated for 30 mins in presence of ATP by Alphascreen assay
SU-DHL-4 = assay: Inhibition of AKT phosphorylation in human SU-DHL-4 cells at 0.25 to 1 uM incubated for 12 hrs by Western blot analysis; assay type: cell-based; conditions: dose 0.25-1 µM
SU-DHL-6 [2] = assay: Induction of apoptosis in human SU-DHL-6 cells assessed as late apoptotic cells at 0.5 uM incubated for 24 hrs by Annexin V-FITC/PI staining based flow cytometric analysis (reference value: 6.43 %); assay type: functional
SU-DHL-6 [3] = assay: Induction of apoptosis in human SU-DHL-6 cells assessed as early apoptotic cells at 0.5 uM incubated for 24 hrs by Annexin V-FITC/PI staining based flow cytometric analysis (reference value: 32.1 %); assay type: functional
Homo sapiens [4] = species on record: Homo sapiens; assay: Inhibition of human p110alpha-H1047R mutant/p85alpha at 1 uM relative to control
[5] = biological target: PI3-kinase p110-delta/p85-alpha (Homo sapiens, UniProt O00329); assay: Inhibition of p110delta/p85alpha (unknown origin) incubated for 2 hrs in presence of ATP by ADP-kinaseGlo reagent based assay; assay type: protein-complex assay
[6] = biological target: Phosphatidylinositol 4-phosphate 5-kinase type-1 alpha (Homo sapiens) (UniProt Q99755); assay: Inhibition of human PIP5K1alpha at 1 uM relative to control
[7] = biological target: Phosphatidylinositol 3-kinase C2 domain-containing subunit gamma (Homo sapiens) (UniProt O75747); assay: Inhibition of human PI3KC2gamma at 1 uM relative to control
[8] = biological target: PI3-kinase p110-alpha/p85-alpha (Homo sapiens, UniProt P42336); assay: Inhibition of p110alpha/p85alpha (unknown origin) incubated for 2 hrs in presence of ATP by ADP-kinaseGlo reagent based assay; assay type: protein-complex assay
[9] = Toxicity in female BALB/c mouse model xenografted with human SU-DHL-6 cells assessed as effect on liver histopathology at 20 mg/kg, po administered once daily via gavage for 15 days by H and E staining based analysis; assay type: organism-based; conditions: in vivo, 360 h, time 15 day
SU-DHL-6 [10] = assay: Induction of apoptosis in human SU-DHL-6 cells assessed as early apoptotic cells at 0.25 uM incubated for 24 hrs by Annexin V-FITC/PI staining based flow cytometric analysis (reference value: 32.1 %); assay type: functional
Homo sapiens [11] = species on record: Homo sapiens; assay: Inhibition of human p110alpha/p65alpha at 1 uM relative to control
[12] = biological target: Glycogen synthase kinase-3 beta (Homo sapiens) (UniProt P49841); assay: Inhibition of GSK-3beta phosphorylation in human SU-DHL-6 cells incubated for 12 hrs by Western blot analysis; assay type: cell-based; conditions: dose 0.25-1 µM
SU-DHL-6 [13] = assay: Induction of apoptosis in human SU-DHL-6 cells assessed as necrotic cells at 1 uM incubated for 24 hrs by Annexin V-FITC/PI staining based flow cytometric analysis (reference value: 0.246 %); assay type: functional
SUD4 [14] = assay: Downregulation of c-Myc expression in human SU-DHL-4 cells at 0.25 to 1 uM incubated for 12 hrs by Western blot analysis; assay type: functional, cell-based; conditions: dose 0.25-1 µM
SUD4 [15] = assay: Induction of apoptosis in human SU-DHL-4 cells assessed as viable cells at 1 uM incubated for 24 hrs by Annexin V-FITC/PI staining based flow cytometric analysis (reference value: 65.2 %); assay type: functional; conditions: read-out: Activity
SU-DHL-6 [16] = assay: Inhibition of AKT phosphorylation in human SU-DHL-6 cells incubated for 12 hrs by Western blot analysis; assay type: cell-based; conditions: dose 0.25-1 µM
[17] = Clearance in female BALB/c mouse at 1 mg/kg, iv measured after 12 hrs by LC-MS/MS analysis; assay type: ADME, organism-based; conditions: in vivo
HUVEC = assay: Cytotoxicity against HUVEC cells assessed as effect on cell proliferation at 5 to 20 uM incubated for 72 hrs by Celltiter-luminescence analysis; assay type: toxicity, cell-based; conditions: human, dose 5-20 µM
[18] = Cmax in female BALB/c mouse at 20 mg/kg, po measured after 24 hrs by LC-MS/MS analysis; assay type: ADME, organism-based; conditions: in vivo
SUD4 [19] = assay: Antiproliferative activity against human SU-DHL-4 cells assessed as inhibition of cell proliferation by measuring reduction in cell count incubated for 6 days by photographic analysis; assay type: functional, cell-based; conditions: dose 25-100 nM, time 6.0 day
SUD4 [20] = assay: Induction of apoptosis in human SU-DHL-4 cells assessed as viable cells at 0.5 uM incubated for 24 hrs by Annexin V-FITC/PI staining based flow cytometric analysis (reference value: 65.2 %); assay type: functional; conditions: read-out: Activity
[21] = Half-life in female BALB/c mouse at 20 mg/kg, po measured after 24 hrs by LC-MS/MS analysis; assay type: ADME, organism-based; conditions: in vivo
SU-DHL-6 [22] = assay: Induction of apoptosis in human SU-DHL-6 cells assessed as late apoptotic cells at 0.25 uM incubated for 24 hrs by Annexin V-FITC/PI staining based flow cytometric analysis (reference value: 6.43 %); assay type: functional
SU-DHL-6 [23] = assay: Induction of apoptosis in human SU-DHL-6 cells assessed as necrotic cells at 0.25 uM incubated for 24 hrs by Annexin V-FITC/PI staining based flow cytometric analysis (reference value: 0.246 %); assay type: functional
[24] = biological target: Phosphatidylinositol 4,5-bisphosphate 3-kinase catalytic subunit gamma isoform (Homo sapiens, UniProt P48736); assay: Inhibition of PI3Kgamma (unknown origin) incubated for 2 hrs in presence of ATP by ADP-kinaseGlo reagent based assay
[25] = tested on: PI3-kinase p110-alpha/p85-alpha (Homo sapiens), P27986+P42336 [E542K]; assay: Inhibition of human p110alpha-E545K mutant/p85alpha at 1 uM relative to control; assay type: protein-complex assay
SU-DHL-6 [26] = assay: Induction of apoptosis in human SU-DHL-6 cells assessed as viable cells at 1 uM incubated for 24 hrs by Annexin V-FITC/PI staining based flow cytometric analysis (reference value: 61.2 %); assay type: functional; conditions: read-out: Activity
[27] = biological target: Phosphatidylinositol 4-phosphate 3-kinase C2 domain-containing subunit alpha (Homo sapiens) (UniProt O00443); assay: Inhibition of human PI3KC2alpha at 1 uM relative to control
[28] = Toxicity in female BALB/c mouse model xenografted with human SU-DHL-6 cells assessed as effect on spleen histopathology at 20 mg/kg, po administered once daily via gavage for 15 days by H and E staining based analysis; assay type: organism-based; conditions: in vivo, 360 h, time 15 day
[29] = Toxicity in female BALB/c mouse model xenografted with human SU-DHL-6 cells assessed as effect on lung histopathology at 20 mg/kg, po administered once daily via gavage for 15 days by H and E staining based analysis; assay type: organism-based; conditions: in vivo, 360 h, time 15 day
[30] = biological target: Phosphatidylinositol 4-phosphate 5-kinase type-1 gamma (Homo sapiens) (UniProt O60331); assay: Inhibition of human PIP5K1gamma at 1 uM relative to control
SU-DHL-6 [31] = assay: Antitumor activity against human SU-DHL-6 cells xenografted in female BALB/c mouse model assessed as reduction in phosphorylated AKT level in tumor at 20 mg/kg, po administered once daily via gavage for 15 days by Western blot analysis; assay type: functional, organism-based; conditions: time 15.0 day
SU-DHL-6 [32] = assay: Induction of apoptosis in human SU-DHL-6 cells assessed as early apoptotic cells at 1 uM incubated for 24 hrs by Annexin V-FITC/PI staining based flow cytometric analysis (reference value: 32.1 %); assay type: functional

Chain of Phosphatidylinositol 3-kinase C2 domain-containing subunit gamma (Homo sapiens) (O75747 whole entry, the tested form may be a part): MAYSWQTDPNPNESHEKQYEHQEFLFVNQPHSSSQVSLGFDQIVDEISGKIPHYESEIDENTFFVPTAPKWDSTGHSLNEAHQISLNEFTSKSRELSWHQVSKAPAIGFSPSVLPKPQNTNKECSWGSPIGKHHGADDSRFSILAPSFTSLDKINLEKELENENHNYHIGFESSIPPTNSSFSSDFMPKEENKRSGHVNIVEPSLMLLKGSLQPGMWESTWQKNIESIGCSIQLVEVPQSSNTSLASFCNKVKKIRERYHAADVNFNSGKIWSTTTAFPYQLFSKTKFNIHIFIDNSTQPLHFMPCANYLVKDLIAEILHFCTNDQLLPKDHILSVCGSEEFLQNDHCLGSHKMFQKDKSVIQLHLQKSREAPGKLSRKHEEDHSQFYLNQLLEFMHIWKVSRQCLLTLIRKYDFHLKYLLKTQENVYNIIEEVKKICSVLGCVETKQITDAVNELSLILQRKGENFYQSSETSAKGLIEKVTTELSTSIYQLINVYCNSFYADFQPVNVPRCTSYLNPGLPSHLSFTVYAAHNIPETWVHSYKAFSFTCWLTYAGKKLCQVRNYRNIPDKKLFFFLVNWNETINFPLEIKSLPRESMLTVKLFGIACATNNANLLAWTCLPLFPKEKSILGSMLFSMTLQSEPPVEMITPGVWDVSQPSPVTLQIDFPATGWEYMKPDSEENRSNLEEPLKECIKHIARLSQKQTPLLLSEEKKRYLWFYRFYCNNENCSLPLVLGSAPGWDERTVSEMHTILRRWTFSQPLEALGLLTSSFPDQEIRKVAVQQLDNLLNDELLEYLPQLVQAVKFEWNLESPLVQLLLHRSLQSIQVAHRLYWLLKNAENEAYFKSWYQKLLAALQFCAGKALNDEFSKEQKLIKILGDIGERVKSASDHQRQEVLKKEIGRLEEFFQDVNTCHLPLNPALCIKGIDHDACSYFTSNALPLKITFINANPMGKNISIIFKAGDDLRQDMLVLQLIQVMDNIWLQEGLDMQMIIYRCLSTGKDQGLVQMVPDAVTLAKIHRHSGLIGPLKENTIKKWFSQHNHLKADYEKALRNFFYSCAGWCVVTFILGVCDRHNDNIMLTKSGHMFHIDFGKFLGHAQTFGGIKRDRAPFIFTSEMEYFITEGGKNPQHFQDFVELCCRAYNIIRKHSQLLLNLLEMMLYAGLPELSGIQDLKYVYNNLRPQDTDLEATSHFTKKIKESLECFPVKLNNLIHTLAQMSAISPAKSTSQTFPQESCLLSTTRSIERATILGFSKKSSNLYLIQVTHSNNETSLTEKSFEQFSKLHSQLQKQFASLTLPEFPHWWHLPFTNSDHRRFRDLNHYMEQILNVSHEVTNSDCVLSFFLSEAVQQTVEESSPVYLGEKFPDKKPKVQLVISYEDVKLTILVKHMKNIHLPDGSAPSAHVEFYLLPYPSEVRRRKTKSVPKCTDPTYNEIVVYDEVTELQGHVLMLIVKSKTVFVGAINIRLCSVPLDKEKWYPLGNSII
Chain of Bromodomain-containing protein 2 (P25440 whole entry): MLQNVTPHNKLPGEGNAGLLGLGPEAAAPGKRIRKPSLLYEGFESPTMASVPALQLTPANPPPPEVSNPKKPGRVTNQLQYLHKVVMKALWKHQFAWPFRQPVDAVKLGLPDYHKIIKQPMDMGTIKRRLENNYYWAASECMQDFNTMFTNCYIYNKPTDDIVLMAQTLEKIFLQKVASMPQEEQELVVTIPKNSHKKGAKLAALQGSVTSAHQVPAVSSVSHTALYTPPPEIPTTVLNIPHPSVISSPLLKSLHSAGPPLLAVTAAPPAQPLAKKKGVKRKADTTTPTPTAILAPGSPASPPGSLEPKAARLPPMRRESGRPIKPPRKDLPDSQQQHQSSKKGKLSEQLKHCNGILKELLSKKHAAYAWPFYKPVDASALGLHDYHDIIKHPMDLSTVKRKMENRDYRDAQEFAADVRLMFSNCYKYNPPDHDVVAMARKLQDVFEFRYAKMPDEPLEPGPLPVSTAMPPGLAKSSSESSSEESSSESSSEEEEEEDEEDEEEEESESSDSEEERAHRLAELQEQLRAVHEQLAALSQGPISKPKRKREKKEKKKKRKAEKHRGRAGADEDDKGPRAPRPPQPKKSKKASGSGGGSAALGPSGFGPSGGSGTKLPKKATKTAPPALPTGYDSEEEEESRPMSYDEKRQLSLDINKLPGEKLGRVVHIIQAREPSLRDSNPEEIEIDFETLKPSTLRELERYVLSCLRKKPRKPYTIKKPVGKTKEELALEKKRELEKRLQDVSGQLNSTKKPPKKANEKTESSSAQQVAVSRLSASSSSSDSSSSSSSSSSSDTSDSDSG
Chain of Glycogen synthase kinase-3 beta (Homo sapiens) (P49841 whole entry, looked up): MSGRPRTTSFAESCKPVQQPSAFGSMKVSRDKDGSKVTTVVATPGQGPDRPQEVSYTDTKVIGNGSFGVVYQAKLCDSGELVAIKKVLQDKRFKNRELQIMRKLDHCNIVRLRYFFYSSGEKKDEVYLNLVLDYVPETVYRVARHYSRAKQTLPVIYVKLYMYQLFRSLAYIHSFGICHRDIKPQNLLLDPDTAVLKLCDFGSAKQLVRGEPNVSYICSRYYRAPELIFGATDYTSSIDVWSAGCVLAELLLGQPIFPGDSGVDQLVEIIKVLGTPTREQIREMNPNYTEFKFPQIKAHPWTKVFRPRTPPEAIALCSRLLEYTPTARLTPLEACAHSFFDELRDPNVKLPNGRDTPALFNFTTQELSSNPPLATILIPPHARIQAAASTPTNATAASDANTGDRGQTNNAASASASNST
Chain of Phosphatidylinositol 4-phosphate 3-kinase C2 domain-containing subunit alpha (Homo sapiens) (O00443 whole entry, the tested form may be a part): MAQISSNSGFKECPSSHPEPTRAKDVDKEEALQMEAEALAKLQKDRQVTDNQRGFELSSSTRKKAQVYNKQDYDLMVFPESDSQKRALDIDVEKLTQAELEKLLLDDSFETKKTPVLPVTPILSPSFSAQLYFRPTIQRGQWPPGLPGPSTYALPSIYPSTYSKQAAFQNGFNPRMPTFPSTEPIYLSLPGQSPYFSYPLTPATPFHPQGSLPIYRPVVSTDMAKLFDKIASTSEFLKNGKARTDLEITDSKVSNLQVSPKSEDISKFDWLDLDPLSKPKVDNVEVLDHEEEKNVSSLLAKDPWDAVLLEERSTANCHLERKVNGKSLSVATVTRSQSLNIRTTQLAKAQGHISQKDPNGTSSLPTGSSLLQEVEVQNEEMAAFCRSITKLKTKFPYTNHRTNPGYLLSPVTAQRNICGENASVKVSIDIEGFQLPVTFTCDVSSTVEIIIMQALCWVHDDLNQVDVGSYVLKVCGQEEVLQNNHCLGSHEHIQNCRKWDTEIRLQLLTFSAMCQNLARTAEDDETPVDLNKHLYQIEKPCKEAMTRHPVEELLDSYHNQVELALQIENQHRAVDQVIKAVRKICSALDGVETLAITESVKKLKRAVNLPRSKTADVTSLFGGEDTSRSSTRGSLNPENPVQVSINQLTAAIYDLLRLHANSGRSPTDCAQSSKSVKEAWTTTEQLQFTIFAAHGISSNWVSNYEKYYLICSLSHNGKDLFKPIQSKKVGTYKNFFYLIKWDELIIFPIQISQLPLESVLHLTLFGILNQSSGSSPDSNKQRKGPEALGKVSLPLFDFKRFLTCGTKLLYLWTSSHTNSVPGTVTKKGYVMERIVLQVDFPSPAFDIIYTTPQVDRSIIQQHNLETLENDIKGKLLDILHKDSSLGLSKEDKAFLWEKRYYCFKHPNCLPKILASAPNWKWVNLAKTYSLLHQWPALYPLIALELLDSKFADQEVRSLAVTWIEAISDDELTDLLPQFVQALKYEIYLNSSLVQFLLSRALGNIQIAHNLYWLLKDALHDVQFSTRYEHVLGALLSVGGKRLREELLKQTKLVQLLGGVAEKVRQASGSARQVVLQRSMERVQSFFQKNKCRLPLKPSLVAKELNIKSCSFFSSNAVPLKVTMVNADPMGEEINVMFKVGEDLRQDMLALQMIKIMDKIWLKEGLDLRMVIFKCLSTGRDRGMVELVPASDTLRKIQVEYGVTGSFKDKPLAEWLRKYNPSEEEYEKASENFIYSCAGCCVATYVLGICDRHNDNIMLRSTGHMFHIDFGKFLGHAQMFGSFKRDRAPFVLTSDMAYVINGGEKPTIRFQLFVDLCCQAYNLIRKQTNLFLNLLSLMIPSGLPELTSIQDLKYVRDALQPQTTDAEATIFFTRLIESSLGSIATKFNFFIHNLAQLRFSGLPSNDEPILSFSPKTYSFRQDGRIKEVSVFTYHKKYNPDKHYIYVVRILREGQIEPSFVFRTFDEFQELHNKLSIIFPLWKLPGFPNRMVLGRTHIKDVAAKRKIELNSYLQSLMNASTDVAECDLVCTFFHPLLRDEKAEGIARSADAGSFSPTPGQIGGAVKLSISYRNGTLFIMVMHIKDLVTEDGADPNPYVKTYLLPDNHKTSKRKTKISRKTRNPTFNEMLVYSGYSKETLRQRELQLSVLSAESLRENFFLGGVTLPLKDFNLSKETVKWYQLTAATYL
Chain of Phosphatidylinositol 4-phosphate 5-kinase type-1 alpha (Homo sapiens) (Q99755 whole entry, the tested form may be a part): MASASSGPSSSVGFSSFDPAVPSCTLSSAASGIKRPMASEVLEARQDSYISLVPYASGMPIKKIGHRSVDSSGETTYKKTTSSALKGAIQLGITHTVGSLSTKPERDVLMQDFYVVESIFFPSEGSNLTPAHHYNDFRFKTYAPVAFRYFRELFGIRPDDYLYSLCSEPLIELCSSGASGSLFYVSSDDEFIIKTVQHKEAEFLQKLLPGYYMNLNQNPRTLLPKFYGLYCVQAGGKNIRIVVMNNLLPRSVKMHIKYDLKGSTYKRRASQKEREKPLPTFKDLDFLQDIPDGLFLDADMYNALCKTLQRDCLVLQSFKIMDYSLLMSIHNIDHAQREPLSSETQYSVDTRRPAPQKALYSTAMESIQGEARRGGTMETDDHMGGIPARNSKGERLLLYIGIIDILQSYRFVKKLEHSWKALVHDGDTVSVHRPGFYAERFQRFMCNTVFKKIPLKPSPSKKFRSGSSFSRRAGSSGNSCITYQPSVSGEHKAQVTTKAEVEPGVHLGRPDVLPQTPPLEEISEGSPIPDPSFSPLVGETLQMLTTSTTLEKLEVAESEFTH

For `Cn1cc(-c2nc(N3CCOCC3)c3sc(CN4CCC(C(C)(C)O)CC4)cc3n2)c2cc[nH]c2c1=O`, the IC50 [1] was 18 nM, the inhibition (SU-DHL-4) was “Active” and the Activity (SU-DHL-6 [2]) was 7.86%. The Activity (SU-DHL-6 [3]) was 41.8%, the inhibition (Homo sapiens [4]) was 33.7% and the IC50 [5] was 112 nM. For the same molecule, the inhibition [6] was 72.6%, the inhibition [7] was 15.6% and the IC50 [8] was 6130 nM. The Activity [9] was “Non-toxic”, the Activity (SU-DHL-6 [10]) was 39.5% and the inhibition (Homo sapiens [11]) was 41.9%. For the same molecule, the inhibition [12] was “Dose-dependent-effect”, the Activity (SU-DHL-6 [13]) was 0.58% and the Activity (SUD4 [14]) was “Active”. The viability at 1 µM (SUD4 [15]) was 28.1%, the inhibition (SU-DHL-6 [16]) was “Dose-dependent-effect” and the clearance [17] was 112 mL/min/kg. The Activity (HUVEC) was “Non-toxic”, the Cmax [18] was 228 ng/mL and the Activity (SUD4 [19]) was “Dose-dependent-effect; Stronger Effect Observed At Lower Concentration Than Those Of Sf2523”. It also gave a viability at 0.5 µM (SUD4 [20]) of 49.1%, a half-life [21] of 3.8 h and an Activity (SU-DHL-6 [22]) of 6.32%. For the same molecule, the Activity (SU-DHL-6 [23]) was 0.481%, the IC50 [24] was 915 nM and the inhibition [25] was 17.3%. The viability at 1 µM (SU-DHL-6 [26]) was 41.8%, the inhibition [27] was 3.4% and the Activity [28] was “Non-toxic”. The Activity [29] was “Non-toxic”, the inhibition [30] was 75.7% and the Activity (SU-DHL-6 [31]) was “Active”. For the same molecule, the Activity (SU-DHL-6 [32]) was 48.9%.
